Data: PubChem BioAssay (NCI)
Values joined by “and” are separate entries in the source; they are usually repeats but may differ in a detail not shown here. Equal values may be shown once.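 Where inhibition never reached the appropriate level, the endpoint shown equals the highest concentration tested. Otherwise, values were interpolated linearly from a five-concentration, 48-hour dose response in 96-well plates. GI50 = concentration required for 50% inhibition of growth. TGI: concentration producing complete growth inhibition.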

tested on: BT-549 breast; assay: NCI tumour cell line growth inhibition, 48 h

Compound	TGI	GI50
O=C(Nc1ccccc1)c1c(O)[nH]c(=S)[nH]c1=O	72 µM	–
OC1CSSC1Cn1cnc2c(Nc3ccc(OCc4cccc(F)c4)c(Cl)c3)ncnc21 (centres undefined)	12.1 µM	4.98 µM
Nc1c(C(=O)c2cccc(CCS(N)(=O)=O)c2)cnn1-c1ccc(F)cc1	> 25 µM	> 25 µM
OCc1cc2ccccc2c2c3c(ccc12)OCO3	76.3 µM	27.1 µM
COc1cnc2c(c1)C(=O)c1c-2n(CCCN2CCOCC2)c(=O)c2cc(F)ccc12	> 100 µM	0.523 µM
C[C@@H](Oc1cc(-n2cnc3ccc(CN4CCN(C)CC4)cc32)sc1C(N)=O)c1ccccc1C(F)(F)F	15.2 µM and > 10 µM	0.0746 µM and 0.139 µM
CCOC1Oc2ccccc2C(=O)/C1=C/Nc1ccc(C(C)=O)cc1 (centres undefined)	92.3 µM	29 µM
COc1cccc(-c2cc(-c3cccc(NS(C)(=O)=O)c3)nc(N)c2C#N)c1O	> 47.4 µM	0.716 µM
Cc1ccsc1C(=S)Nc1ccc(Cl)c(/C=N/OC(C)(C)C)c1	59.8 µM	–
NC(N)=NS(=O)(=O)c1ccc(Nc2c3ccccc3nc3c(C(=O)NCCO)cccc23)cc1	–	33.8 µM
COc1cccc(C2c3cc4c(cc3OC(C)(N3CCCC3)C2C)OCO4)c1O (centres undefined)	48.2 µM	–
CCN(CC)N=Nc1c(C(N)=O)n[nH]c1C	> 100 µM	–
O=C1NC(=NCCc2cccc(F)c2)S/C1=C\c1ccc2ncccc2c1	> 25 µM	10.6 µM
Cc1ccc2c(C)c3c(ccc4ccccc43)c[n+]2c1	16.6 µM	3.57 µM

tested on: NCI-H460 lung; assay: NCI tumour cell line growth inhibition, 48 h

Compound	GI50	TGI
CN(C)c1ccc(/C=C\C2=[N+](C)c3ccccc3C2(C)C)cc1	0.466 µM	7.16 µM
CC(=O)OC1OC([C@@H]2c3cccc(O)c3C(=O)c3c(O)cc(C)cc32)C(O)C(O)C1O (some centres undefined)	0.108 µM	–
Nc1nc(-n2c(-c3ccccc3)nc3c(Br)cc(Br)cc3c2=O)nnc1-c1cccc(Cl)c1Cl	6.92 µM	> 100 µM
O=C1/C(=C/c2ccc(O)c(O)c2)CCC/C1=C\c1ccc(O)c(O)c1	–	20.1 µM
COC(=O)/C=C1\S/C(=N\NC(=O)c2cc3ccc2/C=C\c2ccc(cc2)/C=C\3)N(c2ccccc2)C1=O	2.08 µM	4.29 µM
COC([CH2][Hg][n]1cnc2c1c(=O)n(C)c(=O)n2C)CN1C(=O)c2ccccc2S1(=O)=O (centres undefined)	> 100 µM	> 100 µM
COc1ccc(CC2c3cc4c(cc3CCN2C)OCO4)c(C=O)c1OC (centres undefined)	–	> 100 µM
CN1CCCCC1CCN1c2ccccc2Sc2ccc(Cl)cc21 (centres undefined)	2.77 µM	8.44 µM
C=C(C)C(OC)C(O)CC1(C)CC(O)CC(C)(C2CCC3OC(C4(C)CCC(Br)C(C)(C)O4)CCC3(C)O2)O1 (centres undefined)	17.7 µM	39.3 µM
Cc1cc(-c2nc(C(=O)Nc3cc4oc(N5CCOCC5)nc4nc3N3CC[C@@H](O)C3)co2)ccn1	44 µM	> 100 µM
COc1cc2c(cc1OCCCCN1CCN(CC(=O)Nc3ccc(Cl)cc3C(=O)c3ccccc3Cl)CC1)N=CC1CCCN1C2=O (centres undefined)	0.228 µM	0.517 µM
FC(F)(F)c1cccc(Nc2nc(-c3ccccc3)nc3ncccc23)c1	3.45 µM	12.6 µM
O=C(Nc1ccccc1)c1c(O)[nH]c(=S)[nH]c1=O	29.5 µM	101 µM and > 250 µM
OC1CSSC1Cn1cnc2c(Nc3ccc(OCc4cccc(F)c4)c(Cl)c3)ncnc21 (centres undefined)	0.171 µM	0.667 µM
Nc1c(C(=O)c2cccc(CCS(N)(=O)=O)c2)cnn1-c1ccc(F)cc1	> 25 µM	> 25 µM
OCc1cc2ccccc2c2c3c(ccc12)OCO3	28.5 µM	752 µM
COc1cnc2c(c1)C(=O)c1c-2n(CCCN2CCOCC2)c(=O)c2cc(F)ccc12	0.0573 µM	0.487 µM
C[C@@H](Oc1cc(-n2cnc3ccc(CN4CCN(C)CC4)cc32)sc1C(N)=O)c1ccccc1C(F)(F)F	< 0.0157 µM and 0.0224 µM	12.5 µM and > 10 µM
CCOC1Oc2ccccc2C(=O)/C1=C/Nc1ccc(C(C)=O)cc1 (centres undefined)	32.8 µM	> 100 µM
COc1cccc(-c2cc(-c3cccc(NS(C)(=O)=O)c3)nc(N)c2C#N)c1O	0.316 µM	> 39.5 µM
Cc1ccsc1C(=S)Nc1ccc(Cl)c(/C=N/OC(C)(C)C)c1	–	> 100 µM
NC(N)=NS(=O)(=O)c1ccc(Nc2c3ccccc3nc3c(C(=O)NCCO)cccc23)cc1	9.16 µM	–
COc1cccc(C2c3cc4c(cc3OC(C)(N3CCCC3)C2C)OCO4)c1O (centres undefined)	–	37 µM
CCN(CC)N=Nc1c(C(N)=O)n[nH]c1C	–	> 100 µM
O=C1NC(=NCCc2cccc(F)c2)S/C1=C\c1ccc2ncccc2c1	1.39 µM	> 25 µM
Cc1ccc2c(C)c3c(ccc4ccccc43)c[n+]2c1	5.1 µM	25.1 µM

tested on: RPMI-8226 leukemia; assay: NCI tumour cell line growth inhibition, 48 h

Compound	GI50	TGI
CN(C)c1ccc(/C=C\C2=[N+](C)c3ccccc3C2(C)C)cc1	0.176 µM	> 53.5 µM
CC(=O)OC1OC([C@@H]2c3cccc(O)c3C(=O)c3c(O)cc(C)cc32)C(O)C(O)C1O (some centres undefined)	< 0.0153 µM	< 0.0292 µM
Nc1nc(-n2c(-c3ccccc3)nc3c(Br)cc(Br)cc3c2=O)nnc1-c1cccc(Cl)c1Cl	6.05 µM	> 100 µM
C[N+](C)(C)CC(=O)N/N=C(/CC(=O)CC(C1=C(O)c2ccccc2OC1)c1ccccc1)C(=O)Nc1cccc(Cl)c1 (centres undefined)	–	> 100 µM
O=C1/C(=C/c2ccc(O)c(O)c2)CCC/C1=C\c1ccc(O)c(O)c1	–	> 44.7 µM
COC(=O)/C=C1\S/C(=N\NC(=O)c2cc3ccc2/C=C\c2ccc(cc2)/C=C\3)N(c2ccccc2)C1=O	2.15 µM	5.69 µM
COC([CH2][Hg][n]1cnc2c1c(=O)n(C)c(=O)n2C)CN1C(=O)c2ccccc2S1(=O)=O (centres undefined)	> 100 µM	> 100 µM
COc1ccc(CC2c3cc4c(cc3CCN2C)OCO4)c(C=O)c1OC (centres undefined)	–	> 100 µM
CN1CCCCC1CCN1c2ccccc2Sc2ccc(Cl)cc21 (centres undefined)	3.17 µM	9.29 µM
C=C(C)C(OC)C(O)CC1(C)CC(O)CC(C)(C2CCC3OC(C4(C)CCC(Br)C(C)(C)O4)CCC3(C)O2)O1 (centres undefined)	12.7 µM	38.1 µM
Cc1cc(-c2nc(C(=O)Nc3cc4oc(N5CCOCC5)nc4nc3N3CC[C@@H](O)C3)co2)ccn1	25.8 µM	> 100 µM
COc1cc2c(cc1OCCCCN1CCN(CC(=O)Nc3ccc(Cl)cc3C(=O)c3ccccc3Cl)CC1)N=CC1CCCN1C2=O (centres undefined)	0.0573 µM	0.173 µM
FC(F)(F)c1cccc(Nc2nc(-c3ccccc3)nc3ncccc23)c1	3.09 µM	9.16 µM
O=C(Nc1ccccc1)c1c(O)[nH]c(=S)[nH]c1=O	–	79 µM and > 25 µM
OC1CSSC1Cn1cnc2c(Nc3ccc(OCc4cccc(F)c4)c(Cl)c3)ncnc21 (centres undefined)	1.06 µM	3.74 µM
Nc1c(C(=O)c2cccc(CCS(N)(=O)=O)c2)cnn1-c1ccc(F)cc1	> 25 µM	> 25 µM
OCc1cc2ccccc2c2c3c(ccc12)OCO3	26.2 µM	94.4 µM
COc1cnc2c(c1)C(=O)c1c-2n(CCCN2CCOCC2)c(=O)c2cc(F)ccc12	0.135 µM	0.804 µM
C[C@@H](Oc1cc(-n2cnc3ccc(CN4CCN(C)CC4)cc32)sc1C(N)=O)c1ccccc1C(F)(F)F	0.0546 µM and 0.0384 µM	13.6 µM and > 10 µM
CCOC1Oc2ccccc2C(=O)/C1=C/Nc1ccc(C(C)=O)cc1 (centres undefined)	15.9 µM	68.3 µM
COc1cccc(-c2cc(-c3cccc(NS(C)(=O)=O)c3)nc(N)c2C#N)c1O	0.268 µM	11.8 µM
Cc1ccsc1C(=S)Nc1ccc(Cl)c(/C=N/OC(C)(C)C)c1	–	> 100 µM
NC(N)=NS(=O)(=O)c1ccc(Nc2c3ccccc3nc3c(C(=O)NCCO)cccc23)cc1	15 µM	–
COc1cccc(C2c3cc4c(cc3OC(C)(N3CCCC3)C2C)OCO4)c1O (centres undefined)	–	36.5 µM
CCN(CC)N=Nc1c(C(N)=O)n[nH]c1C	–	> 100 µM
O=C1NC(=NCCc2cccc(F)c2)S/C1=C\c1ccc2ncccc2c1	1.73 µM	> 25 µM
Cc1ccc2c(C)c3c(ccc4ccccc43)c[n+]2c1	4.92 µM	41.2 µM
